Measured values: US6869930B1, “Acylated insulin” (priority 1993, dated 2005)

What was measured:
[1] = Lipophilicity relative to human insulin, k′rel, by isocratic RP-HPLC (LiChrosorb RP18); format: physicochemical; conditions: pH 7.3
Experimental: The elution was monitored by following the UV absorption of the eluate at 214 nm. Void time, t0, was found by injecting 0.1 mM sodium nitrate.

[2] = tested on: rabbits; test: Single day retardation test: prolongation of the blood glucose lowering effect in rabbits; format: in vivo
Experimental: The degree of prolongation of the blood glucose lowering effect was studied in rabbits. Each insulin derivative was tested by subcutaneous injection of 12 nmol thereof in, each of six rabbits in the single day retardation test. Blood sampling for glucose analysis was performed before injection and at 1, 2, 4 and 6 hours after injection. The glucose values found are expressed as percent of initial values.

## N^εB29-lithocholoyl insulin [N^εB29-lithocholoyl insulin (Zn-free)]
[1]
  Relative Lipophilicity: 51.6
[2]; 12 nmol subcutaneous, 1 h after injection, 3 Zn^2+/insulin hexamer except where Zn-free
  Blood glucose, % of initial 1 h: 98.3 % of initial
[2]; 12 nmol subcutaneous, 2 h after injection, 3 Zn^2+/insulin hexamer except where Zn-free
  Blood glucose, % of initial 2 h: 92.3 % of initial
[2]; 12 nmol subcutaneous, 4 h after injection, 3 Zn^2+/insulin hexamer except where Zn-free
  Blood glucose, % of initial 4 h: 100.5 % of initial
[2]; 12 nmol subcutaneous, 6 h after injection, 3 Zn^2+/insulin hexamer except where Zn-free
  Blood glucose, % of initial 6 h: 93.4 % of initial
[2]; calculated from blood glucose values, scaled: 100 = bovine ultralente insulin, 0 = Actrapid insulin
  Index of protraction: 115

## Lys^B29(N^ε-[N^α-tetradecanoyl Aad(−)-OH]) des(B30) Human Insulin [Example 42]
[1]
  lipophilicity relative to human insulin, k′rel: 21

## Lys^B29(N^ε-[N^α-tetradecanoyl-γ-carboxy-Glu-]) des(B30) Human Insulin [Example 43]
[1]
  lipophilicity relative to human insulin, k′rel: 10
